Reference: patent US7745465B2, “Method of enhancing cellular production of molecular chaperone, hydroxylamine derivatives useful for enhancing the chaperone production and the preparation thereof” (CytRx Corporation, priority 1995, dated 2010)

Columns and labels:
[1] = system: Male Sprague-Dawley rats; assay: Protection against cardiac ischaemia: survival after 5 minutes coronary occlusion and reperfusion; format: in vivo, rat; conditions: i.v. 1 mg/kgbw, 5 min. before the occlusion; non-treated control 10
Method: Male Sprague-Dawley rats (380-450 g b.w.) were anaesthetized with sodiumpentobarbital (Nembutal 60 mg/kg body weight, i.p.) and artificially ventilated with room air (2 ml/100 g; 54 stroke/minutes) via tracheotomy. The right carotid artery was catheterized and connected to a pressure transducer (BPR-01, Stoelting) for the measurement of systemic arterial blood pressure (BP) by means of a preamplifier (Hg-02, Experimetria). Hydroxylamine derivatives disclosed in Example 5 were administered via the venous cannule to jugular vein (i.v.) and orally (p.o.). Heart rate (HR) was measured by a cardiotachometer (HR-01, Experimetria). The electrocardiogram (ECG standard lead II) was recorded on a devices recorder (MR-12, Medicor) by means of subcutaneous steel needles electrodes. The chest was opened by a left thoracotomy and the heart was exteriorized by a gentle pressure on the right side of the rib cage. A 4-0 silk suture was quickly placed under the main left coronary artery as described by Selye et al. (1960). The heart was carefully replaced in the chest and the animal left to recover. Rectal temperature was monitored and kept constant at 37 C. The experimental protocol was initiated with a 15 minute stabilization period during which the observation of a sustained blood pressure less than 70 mmHg and or the occurrence of anhythmia led to exclusion. Myocardial ischemia was induced with coronary occlusion for 5 minutes and reperfusion allowed for 10 minutes.
During the entire experiment BP, HR and ECG were continuously registered on a multiscriptor (R61-6CH, Medicor). Hydroxylamine derivatives, the tautomeric forms of which are represented by structures (I) and (II), were administered 5 to 60 minutes before the occlusion after i.v. and p.o. treatment, respectively. […]
The mean duration of ventricular tachycardia (VT) and/or ventricular fibrillation (VF) during the first 3 minutes of reperfusion was analyzed by one-way analysis of variance. The incidence of VF was analyzed using a chi-square test. […] The haemodynamic variables were analyzed using Student's “t”-test. The critical level of significance was set at p<0.05. All results were expressed as a means±S.E.M. Drugs were administered i.v. in a dose of 1 mg/kgbw 5 min. before the occlusion.
The hydroxylamine derivatives that are found to be particularly advantageous for protecting an animal against ischemic/reperfusion injury are listed below. Survival (%) indicates the percent of animals survived the effects of 5 minutes coronary occlusion.

[2] = system: HSP72; assay: Heat stress induced HSP72 production in 3T3 cells; format: cell-based, mouse; conditions: 10^−5 M
Method: From the applied cells the 3T3 and L-929 mouse fibroblasts were cultured in MEM medium and grew in monolayer, the U-937 human leukemia cells were maintained in RPMI-1640 medium, in suspension culture, while the HeLa human epithelial cells were cultured in DMEM medium and in monolayer form. Cell cultures were maintained as described in example 6.2 (a) with the difference that cells were cultured in the above mentioned culture mediums.
Experiments were carried out applying stress before and after the drug treatment. Stress was provoked by heat, by chemical agent, HgCl2 treatment. The test compounds were applied in the treatments at the 10^−5 M concentration.
The experiments on 3T3 cell applying heat stress were performed as described in the 6.2. (c) point of example 6, with the difference that stress was induced by a 30 min. exposure at 43° C. temperature and treatment with the test compounds was performed 15 min. before or 100 min. after the heat stress.
Immunodetection was carried out using the HSP72 specific SPA 810 (StressGene) primary and the horse-radish peroxidase conjugated A9044 (Sigma) secondary antibodies. Densitometric evaluation was performed by a LKB Ultrascan XL densitometer.

[3] = system: Hsp72; assay: Heat stress induced hsp72 expression in rat testicular explant; format: cell-based; conditions: 10^−5 M, 15 min. before 43° C. 30 min.
Method: Testis of CFY rats weighing of 200 g were removed in sterile conditions and the released testicular tubuli were suspended in 10% fetal bovine serum containing MEM culture medium in that way that five ml suspension contained 50-100 mg tissue. The explants were incubated in 5% CO2 containing humidified air at 37° C. for one hour, then the cultures were treated with 10^−5 M concentration of the tested compounds. After a further incubation for 15 min. at 37° C., explants were exposed to heat shock at 43° C. for 30 min. The amount of the induced hsp72 was measured after a further 6 hours incubation at 37° C.

[4] = treatment 15 min. before 30 min. 43° C. heat stress
[5] = treatment 100 min. after 30 min. 43° C. heat stress

Cl.O=[N+]([O-])c1ccccc1C(Cl)=NOCC(O)CN1CCCCC1 (stereo not shown) [Example 6, N-[2-hydroxy-3-(1-piperidinyl)propoxy]-2-nitro-benzenecarboximidoyl chloride monohydrochloride]
Survival (%) [1]: 100%
HSP72 level relative to the stress exposed control [2, 4]: +++ (>100%)
HSP72 level relative to the stress exposed control [2, 5]: 0 (0 indicates that the treatment altered by ±20% the stress induced hsp72 level in the cells)
Level of hsp72 relative to the stress exposed control [3]: + +

CN1CCN(CCCONC(=N)c2cccnc2)CC1.Cl
melting point: 127 to 130 °C

Cl.O=[N+]([O-])c1ccc(C(Cl)=NOCC(O)CN2CCCCC2)cc1 (stereo not shown)
melting point: 180 to 182 °C

Cl.OC(CONC(=NC1CCCCC1)c1cccnc1)CN1CCCCC1 (stereo not shown)
melting point: 130 to 134 °C

CC(=NOCC(O)CNC(C)(C)C)c1cccc(C(F)(F)F)c1.CC(=O)O (stereo not shown) [1-{[3-(t-butylamino)-2-hydroxy-propoxy]-imino}-1-(m-trifluoromethyl-phenyl)-ethane acetate]
HSP72 level relative to the stress exposed control [2, 4]: +++ (>100%)
Level of hsp72 relative to the stress exposed control [3]: + (21-50%)

CCCCCCNC(=O)NOCC(O)CN1CCCCC1 (stereo not shown) [Example 58, N-hexyl-N′-[2-hydroxy-3-(1-piperidinyl)propoxy]-urea]
HSP72 level relative to the stress exposed control [2, 5]: +++ (>100%)
Level of hsp72 relative to the stress exposed control [3]: 0 (0 indicates that the treatment altered by ±20% the stress induced hsp72 level in the cells)

Cl.Cl.N=C(NOCC(O)CN1CCCCC1)c1ccccc1[N+](=O)[O-] (stereo not shown)
melting point: 200 to 208 °C

O=C(O)/C=C\C(=O)O.O[C@@H](CON=C(Cl)c1cccnc1)CN1CCCCC1 [Example 77, /R/(+)-N-[2-hydroxyl-3-(1-piperidinyl)propoxy]-3-pyridinecarboximidoyl chloride (Z)-2-butenedioate (1:1)]
Survival (%) [1]: 67%
HSP72 level relative to the stress exposed control [2, 4]: +++ (>100%)

CCN(CC)C(=NOCC(O)CN1CCCCC1)c1cccnc1.Cl (stereo not shown) [Example 51]
Survival (%) [1]: 75%
HSP72 level relative to the stress exposed control [2, 4]: +++ (>100%)

CCN(CC)CCCON=C(Cl)c1cccnc1.Cl [O-(3-diethylamino-propoxy)-3-pyridine-carboximidoyl-chloride hydrochloride]
HSP72 level relative to the stress exposed control [2, 4]: +++ (>100%)
Level of hsp72 relative to the stress exposed control [3]: 0 (0 indicates that the treatment altered by ±20% the stress induced hsp72 level in the cells)

Cl.Cl.N=C(NOCC(O)CN1CCCCC1)c1nccc2ccccc12 (stereo not shown) [Example 46, N-[2-hydroxy-3-(1-piperidinyl)propoxy]-1-isoquinolinecarboximidoyl dihydrochloride]
Level of hsp72 relative to the stress exposed control [3]: + + +

CC(=O)Nc1ccc(C(N)=NOCC(O)CN2CCCCC2)cc1.Cl (stereo not shown) [Example 39]
Survival (%) [1]: 60%
Level of hsp72 relative to the stress exposed control [3]: 0 (0 indicates that the treatment altered by ±20% the stress induced hsp72 level in the cells)

CCN(CC)CC1CON=C(c2cccnc2)O1.Cl (stereo not shown) [3-(3-piridyl)-5-diethylaminomethyl-5,6-dihydro-6H-1,4,2-dioxazine hydrochloride]
HSP72 level relative to the stress exposed control [2, 4]: + (21-50%)
Level of hsp72 relative to the stress exposed control [3]: + +

O=C(NOCC(O)CN1CCCCC1)c1cccc2ccccc12 (stereo not shown) [Example 54, N-[2-hydroxy-3-(1-piperidinyl)propoxy]naphthalene-1-carboxamide]
Survival (%) [1]: 80%
HSP72 level relative to the stress exposed control [2, 4]: +++ (>100%)
HSP72 level relative to the stress exposed control [2, 5]: ++ (51-100%)

Cl.O=[N+]([O-])c1cccc(C(Cl)=NOCC(O)CN2CCCCC2)c1 (stereo not shown) [Example 4, N-[2-hydroxy-3-(1-piperidinyl)propoxy]-3-nitro-benzenecarboximidoyl chloride monohydrochloride]
Survival (%) [1]: 50%
Level of hsp72 relative to the stress exposed control [3]: + (21-50%)

5,6-dihydro-3-(4-chloro-phenyl)-5-[N-methyl-piperidinium-1-yl]-methyl-4H-1,2,4-oxadiazine iodide
HSP72 level relative to the stress exposed control [2, 4]: ++ (51-100%)
Level of hsp72 relative to the stress exposed control [3]: + (21-50%)

CCCCCCNC(=O)NOCCCN1CCCCC1 [Example 61, N-hexyl-N′-[3-(1-piperidinyl)propoxy]-urea]
HSP72 level relative to the stress exposed control [2, 4]: ++ (51-100%)
Level of hsp72 relative to the stress exposed control [3]: 0 (0 indicates that the treatment altered by ±20% the stress induced hsp72 level in the cells)

C[n+]1cccc(C(Cl)=NOCC(O)C[N+]2(C)CCCCC2)c1.[I-].[I-] (stereo not shown) [Example 16, N′-[2-hydroxy-3-(1-methyl-1-piperidinium-1-yl)propoxy]-N-methyl-pyridinium-3-carboximidoyl chloride diiodide]
Survival (%) [1]: 67%
HSP72 level relative to the stress exposed control [2, 4]: +++ (>100%)
HSP72 level relative to the stress exposed control [2, 5]: +++ (>100%)

CCCCCCCCCCCCCCCC(=O)OC(CONC(=N)c1cccnc1)CN1CCCCC1.Cl (stereo not shown) [Example 22, N-[2-palmitoyloxy-3-(1-piperidinyl)propoxy]-3-pyridinecarboximidamide monohydrochloride]
Survival (%) [1]: 100%
HSP72 level relative to the stress exposed control [2, 4]: +++ (>100%)
HSP72 level relative to the stress exposed control [2, 5]: + (21-50%)
Level of hsp72 relative to the stress exposed control [3]: 0 (0 indicates that the treatment altered by ±20% the stress induced hsp72 level in the cells)

CN(OCCCN1CCCCC1)C(=O)c1ccccc1.Cl [N-methyl-N-[3-(1-piperidinyl)-propoxy]-benzamide hydrochloride]
HSP72 level relative to the stress exposed control [2, 4]: + (21-50%)
Level of hsp72 relative to the stress exposed control [3]: + (21-50%)

CC(C)(C)NCC(O)CON=C(Cl)c1cccc(C(F)(F)F)c1.Cl (stereo not shown) [Example 9, N-[3-[(1,1-Dimethylethyl)amino]-2-hydroxypropoxy]-3-trifluoromethylbenzene-carboximidoyl chloride monohydrochloride]
Survival (%) [1]: 100%
Level of hsp72 relative to the stress exposed control [3]: + (21-50%)

CC(C)(C)NC1CON=C(c2cccnc2)O1 (stereo not shown) [3-(3-piridyl)-5-t-butylamino-5,6-dihydro-6H-1,4,2-dioxazine]
HSP72 level relative to the stress exposed control [2, 4]: + (21-50%)
Level of hsp72 relative to the stress exposed control [3]: 0 (0 indicates that the treatment altered by ±20% the stress induced hsp72 level in the cells)

Cl.ClC(=NOCCCN1CCCCC1)c1cccs1 [N-[3-(1-piperidinyl)-propoxy]-tiophene-2-carboximidoyl-chloride-hydrochloride]
Level of hsp72 relative to the stress exposed control [3]: + +

Cl.Cl.ClC(=NOCCCN1CCCCC1)c1cccnc1 [Example 78, N-(3-piperidino-1-propoxy)-3-pyridinecarboximidoyl chloride dihydrochloride]
Survival (%) [1]: 100%
HSP72 level relative to the stress exposed control [2, 4]: +++ (>100%)
Level of hsp72 relative to the stress exposed control [3]: + +
